Assay results published in CN101993370A, “蓝萼甲素酸酯衍生物及其制备方法和应用” (SHANGHAI JINHAO PHARMACEUTICAL DEVELOPMENT Co Ltd, priority 2009, dated 2011).

Key:
[1] = test system: HCA ascites type [HCA腹水型]; settings: mice bearing HCA ascites type; cited from earlier work
[2] = test system: Lewis lung cancer [Lewis肺癌]; settings: solid tumor; cited from earlier work
[3] = in vivo; cited from earlier work
[4] = cited from earlier work
[5] = cited from earlier work; remark: listed apart in the source
[6] = test system: 5180 ascites type [5180腹水型]; settings: mice bearing 5180 ascites type; cited from earlier work
[7] = in vivo and in vitro; cited from earlier work
[8] = test system: 5180 solid type [5180实体型]; settings: cited from earlier work
HCA solid type [HCA实体型] = settings: cited from earlier work
[9] = cited from earlier work; remark: listed apart in the source
[10] = test system: lung cancer A549 tumor cells [肺癌A549肿瘤细胞]; experiment: MTT assay, A549 lung cancer tumor cells (Example 33); assay type: cell-based; settings: 48 h, positive control

Compound	life prolongation rate [1]	inhibition of tumor growth [2]	elimination [3]	half-life [3]	anticancer effect in vitro [4]	solubility in nonpolar solvents ([5]; chloroform and other nonpolar solvents)	solubility in water ([5]; water)	life prolongation rate [6]	antitumor effect [7]	antitumor spectrum [7]	dose dependence of antitumor effect [7]	inhibition of tumor growth [8]	inhibition of tumor growth (HCA solid type [HCA实体型])	requirement for efficacy in vivo [9]	A value (490nm) ([10]; 0.01l/ml)	inhibition rate ([10]; 0.01l/ml)	A value (490nm) ([10]; 0.1μl/ml)	inhibition rate ([10]; 0.1μl/ml)	A value (490nm) ([10]; 1μl/ml)	inhibition rate ([10]; 1μl/ml)
C=C1C(=O)[C@@]23[C@H](O)C[C@@H]4C(C)(C)C(=O)CC[C@@]4(C)[C@@H]2CC[C@@H]1[C@H]3O [蓝萼甲素]	明显增加	能抑制	药物在体内消除很快	半衰期短	明显的抗癌作用	易溶于氯仿等非极性溶剂	在水中不溶	明显增加	较强的抗肿瘤作用	抗瘤谱较广	呈剂量依赖性	能抑制	能抑制	需大剂量长时间用药才能产生药效						
COc1cccc2c1C(=O)c1c(O)c3c(c(O)c1C2=O)C[C@@](O)(C(=O)CO)C[C@@H]3O[C@H]1C[C@H](N)[C@H](O)[C@H](C)O1 [阿霉素]															0.452 ± 0.057	59.46%	0.406 ± 0.075	73.31%	0.370 ± 0.087	81.21%
